Data as given in US20250073357A1, “GADOLINIUM-BASED COMPOUND, AND MRI CONTRAST AGENT INCLUDING SAME” (THERANOCURE CO., LTD., priority 2021, published 2025).

Legend:
[1] = Measurement of relaxivity (r1, r2), phantom in 3T MRI; type: physicochemical; conditions: tertiary distilled water, 0.0625-1 mM, linear regression, in mM-1 s-1 (unit assumed)
Procedure: The relaxivity (r1, r2) of each of synthesized Gd-DO3A-Va, and cyclic commercial contrast agents Gadovist® and Dotarem® as comparison groups material was measured. Specifically, a phantom was prepared by diluting the gadolinium complex in tertiary distilled water to five concentrations (0.0625, 0.125, 0.25, 0.5, 1 mM), and then T1 and T2 relaxation times were measured in 3T MRI. Thus, R (Relaxation rate=1/T) of each concentration was calculated and the relaxivity (r1, r2) result of the gadolinium complex was obtained through linear regression analysis (see FIG. 3) and shown in a following Table 1.

amyloid beta polymer = amyloid beta polymer (Homo sapiens, UniProt P05067); assay: Amyloid beta polymer targeting ability, MRI phantom experiment; type: binding; conditions: incubated with amyloid beta polymer 37° C. 24 hours, washed, 9.4T MR
Procedure: • (1) 221.5 uL of HFIP was added to 1 mg of amyloid beta at a concentration of 1 mM, followed by shaking for 1 hour at room temperature using a shaker to remove preaggregation. • (2) The amyloid beta from which the preaggregation was removed was dried, and 221.5 uL of DMSO was added thereto to achieve a 1 mM concentration. Using a mixer and sonicator, a suspension thereof was prepared, and 878.5 uL of PBS (1×, pH 7.4) was added thereto to achieve a 0.2 mM concentration. • (3) After incubating the suspension at 37° C. for 4 days using a shaker, the polymerized amyloid beta polymer was dispensed by 200 uL. Then, 20 μL of a solution in which each of Gd-DO3A-Va and the commercial contrast agent (Gadovist®) was dissolved in PBS at 2 mM concentration was added thereto. The incubation was carried out thereon at 37° C. for 24 hours using a shaker. • (4) After 24 hours has elapsed, centrifugation was performed thereon to remove the supernatant therefrom. The amyloid beta polymer was washed using PBS. 200 μL of a solution of PBS:DMSO=9:1 was added to a pellet to prepare an MRI phantom sample. As a control, a phantom sample obtained by incubating only the amyloid beta polymer was used. […]

Sequence of amyloid beta polymer (P05067 672-713 limits assumed): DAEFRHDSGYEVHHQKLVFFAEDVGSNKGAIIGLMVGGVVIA

O=C([O-])CN1CCN(CC(=O)[O-])CCN([C@H](CO)[C@H](O)CO)CCN(CC(=O)[O-])CC1.[Gd+3] (racemic) [Gadovist ®]
relaxivity r1 [1]: 3.9 ± 0.1
relaxivity r2 [1]: 4.8 ± 0.1
contrast enhancement / signal intensity compared to phantom of only amyloid beta polymer (amyloid beta polymer): little difference in contrast enhancement effect

CNC[C@H](O)[C@@H](O)[C@H](O)[C@H](O)CO.O=C([O-])CN1CCN(CC(=O)[O-])CCN(CC(=O)O)CCN(CC(=O)[O-])CC1.[Gd+3] [Dotarem ®]
relaxivity r1 [1]: 3.4 ± 0.1
relaxivity r2 [1]: 3.9 ± 0.2
